Test results: patent US7851474B2, “Dipiperazinyl ketones and related analogues” (Neurogen Corporation, priority 2005, dated 2010)

What follows are compounds tested against T1, chimeric human H3 receptor (Homo sapiens, UniProt Q9Y5N1, E19D) (assay: Chimeric human H3 receptor GTP binding assay (agonist-stimulated GTP-gamma35S binding, Example 7)). Settings: assay of Example 7; "*" in Ki of Table II; read-out: Ki.
T1 construct: made in house; host or cells: Sf9 insect cells (baculovirus infection); P2 membrane preparation
Format: biochemical
Outline: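 Sf9 membranes co-expressing the chimeric receptor and heterotrimeric G-protein subunits, 35 μg protein per tube, in pH 7.4 Tris buffer with 10 μM GDP. Test compounds at 10^−10 to 10^−6 M with 1 μM histamine, 60 min at room temperature. Filter-bound GTP-gamma^35S read by scintillation; IC50 from non-linear regression of dose-response curves.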

T1 sequence (Q9Y5N1 with tags, fused parts or gaps E19D): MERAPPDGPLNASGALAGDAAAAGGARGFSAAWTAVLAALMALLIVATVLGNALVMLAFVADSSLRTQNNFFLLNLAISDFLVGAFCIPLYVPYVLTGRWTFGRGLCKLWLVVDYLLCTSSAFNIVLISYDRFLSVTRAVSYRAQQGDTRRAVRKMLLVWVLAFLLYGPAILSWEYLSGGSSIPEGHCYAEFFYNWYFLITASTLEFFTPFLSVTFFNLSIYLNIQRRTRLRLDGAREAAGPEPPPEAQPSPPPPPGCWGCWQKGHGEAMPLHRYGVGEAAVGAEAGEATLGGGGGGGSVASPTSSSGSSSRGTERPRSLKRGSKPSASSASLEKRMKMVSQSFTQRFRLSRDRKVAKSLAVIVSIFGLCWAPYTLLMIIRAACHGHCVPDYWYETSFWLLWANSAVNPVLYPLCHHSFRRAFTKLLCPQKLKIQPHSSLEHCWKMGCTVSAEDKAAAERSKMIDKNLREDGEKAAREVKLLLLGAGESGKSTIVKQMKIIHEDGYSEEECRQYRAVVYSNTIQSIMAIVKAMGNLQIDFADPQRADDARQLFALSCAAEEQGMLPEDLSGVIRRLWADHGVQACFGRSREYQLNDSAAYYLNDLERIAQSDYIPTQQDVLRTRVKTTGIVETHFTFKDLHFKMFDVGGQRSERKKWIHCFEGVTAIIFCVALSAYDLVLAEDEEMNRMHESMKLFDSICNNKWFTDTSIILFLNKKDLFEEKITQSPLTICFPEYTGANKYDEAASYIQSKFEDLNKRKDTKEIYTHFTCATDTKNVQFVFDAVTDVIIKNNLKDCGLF

Ki, < 1000 nM:
CCSc1ccc(C(=O)NC2CCN(CC(=O)N3CCN(C4CCC4)CC3)CC2)cc1 [Compound 1223, N-{1-[2-(4-cyclobutylpiperazin-1-yl)-2-oxoethyl]piperidin-4-yl}-4-(ethylthio)benzamide]
O=C(NC1CCN(CC(=O)N2CCN(C3CCC3)CC2)CC1)c1ccc(Oc2ccccc2)cc1 [Compound 1224, N-{1-[2-(4-cyclobutylpiperazin-1-yl)-2-oxoethyl]piperidin-4-yl}-4-phenoxybenzamide]
O=C(NC1CCN(CC(=O)N2CCN(C3CCC3)CC2)CC1)c1ccccc1 [Compound 1225, N-{1-[2-(4-cyclobutylpiperazin-1-yl)-2-oxoethyl]piperidin-4-yl}benzamide]
O=C(NC1CCN(CC(=O)N2CCN(C3CCC3)CC2)CC1)C1CC2CCC1C2 (stereo not shown) [Compound 1226, N-{1-[2-(4-cyclobutylpiperazin-1-yl)-2-oxoethyl]piperidin-4-yl}bicyclo[2.2.1]heptane-2-carboxamide]
O=C(NC1CCN(CC(=O)N2CCN(C3CCC3)CC2)CC1)C1CCCCC1 [Compound 1227, N-{1-[2-(4-cyclobutylpiperazin-1-yl)-2-oxoethyl]piperidin-4-yl} cyclohexanecarboxamide]
O=C(NC1CCN(CC(=O)N2CCN(C3CCC3)CC2)CC1)C1CCCCCC1 [Compound 1228, N-{1-[2-(4-cyclobutylpiperazin-1-yl)-2-oxoethyl]piperidin-4-yl} cycloheptanecarboxamide]
Cc1cc(C)cc(C(=O)NC2CCN(CC(=O)N3CCN(C4CCC4)CC3)C2)c1 (stereo not shown) [Compound 1229, N-{1-[2-(4-cyclobutylpiperazin-1-yl)-2-oxoethyl]pyrrolidin-3-yl}-3,5-dimethylbenzamide]
Cc1cccc(C(=O)NC2CCN(CC(=O)N3CCN(C4CCC4)CC3)C2)c1 (stereo not shown) [Compound 1230, N-{1-[2-(4-cyclobutylpiperazin-1-yl)-2-oxoethyl]pyrrolidin-3-yl}-3-methylbenzamide]
Cc1ccc(C(=O)NC2CCN(CC(=O)N3CCN(C4CCC4)CC3)C2)cc1 (stereo not shown) [Compound 1231, N-{1-[2-(4-cyclobutylpiperazin-1-yl)-2-oxoethyl]pyrrolidin-3-yl}-4-methylbenzamide]
Cc1ccc(C(=O)NC2CCN(CC(=O)N3CCN(C4CCC4)CC3)C2)cc1C (stereo not shown) [Compound 1232, N-{1-[2-(4-cyclobutylpiperazin-1-yl)-2-oxoethyl]pyrrolidin-3-yl}-3,4-dimethylbenzamide]
O=C(NC1CCN(CC(=O)N2CCN(C3CCC3)CC2)C1)c1ccc2ccccc2c1 (stereo not shown) [Compound 1233, N-{1-[2-(4-cyclobutylpiperazin-1-yl)-2-oxoethyl]pyrrolidin-3-yl}-2-naphthamide]
CCCc1ccc(C(=O)NC2CCN(CC(=O)N3CCN(C4CCC4)CC3)C2)cc1 (stereo not shown) [Compound 1234, N-{1-[2-(4-cyclobutylpiperazin-1-yl)-2-oxoethyl]pyrrolidin-3-yl}-4-propylbenzamide]
CC(C)c1ccc(C(=O)NC2CCN(CC(=O)N3CCN(C4CCC4)CC3)C2)cc1 (stereo not shown) [Compound 1235, N-{1-[2-(4-cyclobutylpiperazin-1-yl)-2-oxoethyl]pyrrolidin-3-yl)-4-isopropylbenzamide]
COc1cccc(C(=O)NC2CCN(CC(=O)N3CCN(C4CCC4)CC3)C2)c1 (stereo not shown) [Compound 1236, N-{1-[2-(4-cyclobutylpiperazin-1-yl)-2-oxoethyl]pyrrolidin-3-yl}-3-methoxybenzamide]
COc1ccc(C(=O)NC2CCN(CC(=O)N3CCN(C4CCC4)CC3)C2)cc1 (stereo not shown) [Compound 1237, N-{1-[2-(4-cyclobutylpiperazin-1-yl)-2-oxoethyl]pyrrolidin-3-yl}-4-methoxybenzamide]
CCOc1cccc(C(=O)NC2CCN(CC(=O)N3CCN(C4CCC4)CC3)C2)c1 (stereo not shown) [Compound 1239, N-{1-[2-(4-cyclobutylpiperazin-1-yl)-2-oxoethyl]pyrrolidin-3-yl}-3-ethoxybenzamide]
